From patent US20260070945A1, “MACROCYCLIC IMMUNOMODULATORS” (Bristol-Myers Squibb Company, priority 2022, published 2026)
Where a SMILES comes first, the peptide text is derived from it. Bridges are numbered along the chain shown (N, C = ends). [ ]: non-standard residue; d: D form. The star is where a group is joined. ξ: configuration not given here. Phe(4-CONH2) = NC(=O)c1ccc(C[C@H](N)C(=O)O)cc1; Phe(4-COOH) = N[C@@H](Cc1ccc(C(=O)O)cc1)C(=O)O; Bip = N[C@@H](Cc1ccc(-c2ccccc2)cc1)C(=O)O; Phe(3-Me) = Cc1cccc(C[C@H](N)C(=O)O)c1; NH(CH2)12COOH = O=C(O)CCCCCCCCCCCCN*; Val(3-OH) = CC(C)(O)[C@H](N)C(=O)O; Cha = N[C@@H](CC1CCCCC1)C(=O)O; Thr(3ξ) = CC(O)[C@H](N)C(=O)O; NMeS = CN[C@@H](CO)C(=O)O; Carboxymethyl = O=C(O)C*; NMeA = CN[C@@H](C)C(=O)O; Orn = NCCC[C@H](N)C(=O)O; Pra = C#CC[C@H](N)C(=O)O; Aun = NCCCCCCCCCCC(=O)O; Dab = NCC[C@H](N)C(=O)O; Abu = CC[C@H](N)C(=O)O; Dap = NC[C@H](N)C(=O)O; AEEA = NCCOCCOCC(=O)O

The compounds below were run against T1, PD-1/PD-L1 interaction (PE-labeled human PD-L1-Ig binding to Jurkat cell line over-expressing human PD-1) (Homo sapiens, UniProt Q15116) (assay: Jurkat-PD-1 Cell Binding High-Content Screening Assay (CBA)). Conditions: Jurkat-hPD-1 cells, PE-labeled PD-L1-Ig 20 nM final; read-out: Jurkat HPD1 PDL1 IC50.
T1 construct: expressed in transfected cells; host or cells: Jurkat
T1 sequence (Q15116 25-288): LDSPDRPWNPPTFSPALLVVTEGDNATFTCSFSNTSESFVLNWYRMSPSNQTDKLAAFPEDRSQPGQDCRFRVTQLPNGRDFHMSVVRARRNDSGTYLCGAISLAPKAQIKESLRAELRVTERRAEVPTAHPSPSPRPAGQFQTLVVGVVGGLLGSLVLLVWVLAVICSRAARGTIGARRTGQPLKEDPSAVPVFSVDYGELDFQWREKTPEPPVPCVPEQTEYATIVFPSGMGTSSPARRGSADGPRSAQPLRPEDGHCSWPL
Procedure, shortened: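 Jurkat cells overexpressing human PD-1 (8×10^3/well, DMEM + 10% FCS) preincubated with compound 2 h at 37 °C, then PE-labelled human PD-L1-Ig (20 nM final) for 1 h. Cells fixed in paraformaldehyde with Hoechst 33342; bound PD-L1 quantified by high-content imaging.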

| IC50 [nM] | SMILES |
| --- | --- |
| 23.4 | CC(C)C[C@@H]1NC(=O)[C@H](Cc2c[nH]c3ccccc23)NC(=O)[C@H](CC(=O)O)NC(=O)[C@H](Cc2ccc(C(=O)O)cc2)NC(=O)[C@H](Cc2ccc(OCC(=O)O)cc2)NC(=O)CSC[C@@H](C(=O)N[C@@H](CCN)C(=O)NCCCCCCCCCCC(=O)O)NC(=O)[C@H](CCC(N)=O)NC(=O)[C@H](C(C)C)NC(=O)[C@H](CC2CCCCC2)NC(=O)[C@H](CCN)NC(=O)[C@@H](CC(C)C)NC(=O)[C@H](C)N(C)C(=O)[C@H](C(C)C)NC(=O)[C@H](Cc2ccc(-c3ccccc3)cc2)NC1=O [Example 1000] ({CH2CO}-Y(Carboxymethyl)[Phe(4-COOH)]DWL[Bip]V[NMeA][dL][Dab][Cha]VQC[Dab][Aun]-OH; thioether N-14) |
| 18.7 | Cc1cccc(C[C@@H]2NC(=O)[C@H](CC(=O)O)NC(=O)[C@H](Cc3ccc(OCC(=O)O)cc3)NC(=O)[C@H](CO)N(C)C(=O)CSC[C@@H](C(=O)NCCOCCOCC(=O)NCCCCCCCCCCC(=O)O)NC(=O)[C@H](CCCNC(=N)N)NC(=O)[C@H](C(C)C)NC(=O)[C@H](CC3CCCCC3)NC(=O)[C@H](CCN)NC(=O)[C@@H](CC(C)C)NC(=O)[C@H](C)N(C)C(=O)[C@H](C(C)C)NC(=O)[C@H](Cc3ccc(-c4ccccc4)cc3)NC(=O)[C@H](CC(C)C)NC2=O)c1 [Example 2277] ({CH2CO}-[NMeS]Y(Carboxymethyl)D[Phe(3-Me)]L[Bip]V[NMeA][dL][Dab][Cha]VRC[AEEA][Aun]-OH; thioether N-14) |
| 20.7 | C#CC[C@H](NC(=O)[C@H](CCN)NC(=O)[C@@H]1CSCC(=O)N[C@@H]([C@@H](C)O)C(=O)N[C@@H](Cc2ccc(OCC(=O)O)cc2)C(=O)N[C@@H](CC(=O)O)C(=O)N[C@@H](Cc2cccc(C)c2)C(=O)N[C@@H](Cc2ccc(C(=O)O)cc2)C(=O)N[C@@H](Cc2ccc(-c3ccccc3)cc2)C(=O)N[C@@H](Cc2ccc(OCC(=O)O)cc2)C(=O)N(C)[C@@H](C)C(=O)N[C@H](CC(C)C)C(=O)N[C@@H](CCN)C(=O)N[C@@H](CC2CCCCC2)C(=O)N[C@@H](C(C)C)C(=O)N[C@@H]([C@@H](C)O)C(=O)N1)C(=O)NCCCCCCCCCCC(=O)O [Example 1240] ({CH2CO}-TY(Carboxymethyl)D[Phe(3-Me)][Phe(4-COOH)][Bip]Y(Carboxymethyl)[NMeA][dL][Dab][Cha]VTC[Dab][Pra][Aun]-OH; thioether N-14) |
| 15.6 | CC(=O)NCCCC[C@@H]1NC(=O)[C@H](CC2CCCCC2)NC(=O)[C@H](CCN)NC(=O)[C@@H](CC(C)C)NC(=O)[C@H](C)N(C)C(=O)[C@H](C(C)C)NC(=O)[C@H](Cc2ccc(-c3ccccc3)cc2)NC(=O)[C@H](C(C)C)NC(=O)[C@H](Cc2cccc(C)c2)NC(=O)[C@H](CC(=O)O)NC(=O)[C@H](Cc2ccc(OCC(=O)O)cc2)NC(=O)[C@H](C(C)O)NC(=O)CSC[C@@H](C(=O)N[C@@H](CCN)C(=O)NCCCCCCCCCCC(=O)O)NC(=O)[C@H](CO)NC1=O (stereo partly drawn) [Example 2300] ({CH2CO}-[Thr(3ξ)]Y(Carboxymethyl)D[Phe(3-Me)]V[Bip]V[NMeA][dL][Dab][Cha]K(Ac)SC[Dab][Aun]-OH; thioether N-14) |
| 7 | CC[C@@H]1NC(=O)[C@H](Cc2cccc(C)c2)NC(=O)[C@H](CC(=O)O)NC(=O)[C@H](Cc2ccc(OCC(=O)O)cc2)NC(=O)[C@H](CCN)NC(=O)CSC[C@@H](C(=O)N[C@@H](CCN)C(=O)NCCCCCCCCCCC(=O)O)NC(=O)[C@H](CO)NC(=O)[C@H](C(C)(C)O)NC(=O)[C@H](CC2CCCCC2)NC(=O)[C@H](CCN)NC(=O)[C@@H](CC(C)C)NC(=O)[C@H](C)N(C)C(=O)[C@H](Cc2ccc(OCC(=O)O)cc2)NC(=O)[C@H](Cc2ccc(-c3ccccc3)cc2)NC1=O [Example 1308] ({CH2CO}-[Dab]Y(Carboxymethyl)D[Phe(3-Me)][Abu][Bip]Y(Carboxymethyl)[NMeA][dL][Dab][Cha][Val(3-OH)]SC[Dab][Aun]-OH; thioether N-14) |
| 17 | CC(C)C[C@H]1NC(=O)[C@H](C)N(C)C(=O)[C@H](C(C)C)NC(=O)[C@H](Cc2ccc(-c3ccccc3)cc2)NC(=O)[C@H](C(C)C)NC(=O)[C@H](Cc2c[nH]c3ccccc23)NC(=O)[C@H](CC(=O)O)NC(=O)[C@H](Cc2ccc(OCC(=O)O)cc2)NC(=O)[C@H](CN)NC(=O)CSC[C@@H](C(=O)NCCOCCOCC(=O)N[C@@H](CN)C(=O)NCCCCCCCCCCC(=O)O)NC(=O)[C@H](C(C)O)NC(=O)[C@H](C(C)C)NC(=O)[C@H](CC2CCCCC2)NC(=O)[C@H](CCN)NC1=O (stereo partly drawn) [Example 2099] ({CH2CO}-[Dap]Y(Carboxymethyl)DWV[Bip]V[NMeA][dL][Dab][Cha]V[Thr(3ξ)]C[AEEA][Dap][Aun]-OH; thioether N-14) |
| 36.5 | Cc1cccc(C[C@@H]2NC(=O)[C@H](CC(=O)O)NC(=O)[C@H](Cc3ccc(OCC(=O)O)cc3)NC(=O)[C@H](CN)NC(=O)CSC[C@@H](C(=O)NCCOCCOCC(=O)NCCCCCCCCCCC(=O)O)NC(=O)[C@H](CCCN)NC(=O)[C@H](C(C)C)NC(=O)[C@H](CC3CCCCC3)NC(=O)[C@H](CCN)NC(=O)[C@@H](CC(C)C)NC(=O)[C@H](C)N(C)C(=O)[C@H](Cc3ccc(O)cc3)NC(=O)[C@H](Cc3ccc(-c4ccccc4)cc3)NC(=O)[C@H](C(C)C)NC2=O)c1 [Example 1317] ({CH2CO}-[Dap]Y(Carboxymethyl)D[Phe(3-Me)]V[Bip]Y[NMeA][dL][Dab][Cha]V[Orn]C[AEEA][Aun]-OH; thioether N-14) |
| 14.2 | Cc1cccc(C[C@@H]2NC(=O)[C@H](CC(=O)O)NC(=O)[C@H](Cc3ccc(OCC(=O)O)cc3)NC(=O)[C@H](Cc3ccc(C(N)=O)cc3)NC(=O)CSC[C@@H](C(=O)N[C@H](CC(N)=O)C(=O)NCCOCCOCC(=O)NCCCCCCCCCCC(=O)O)NC(=O)[C@H](CO)NC(=O)[C@H](C(C)C)NC(=O)[C@H](CC3CCCCC3)NC(=O)[C@H](CCN)NC(=O)[C@@H](CC(C)C)NC(=O)[C@H](C)N(C)C(=O)[C@H](Cc3ccc(O)cc3)NC(=O)[C@H](Cc3ccc(-c4ccccc4)cc3)NC(=O)[C@H](Cc3ccc(OCC(=O)O)cc3)NC2=O)c1 [Example 2423] ({CH2CO}-[Phe(4-CONH2)]Y(Carboxymethyl)D[Phe(3-Me)]Y(Carboxymethyl)[Bip]Y[NMeA][dL][Dab][Cha]VSC[dN][AEEA][Aun]-OH; thioether N-14) |

Same assay, conditions: PE-labeled PD-L1-Ig 20 nM final, Jurkat-hPD-1 cells; read-out: Jurkat HPD1 PDL1 IC50

| IC50 [nM] | SMILES |
| --- | --- |
| 74.4 | Cc1cccc(C[C@@H]2NC(=O)[C@H](CC(=O)O)NC(=O)[C@H](Cc3ccc(OCC(=O)O)cc3)NC(=O)[C@H](C)NC(=O)CSC[C@@H](C(=O)N[C@@H](CCN)C(=O)NCCCCCCCCCCCCC(=O)O)NC(=O)[C@H](Cc3cnc[nH]3)NC(=O)[C@H](C(C)(C)O)NC(=O)[C@H](CC3CCCCC3)NC(=O)[C@H](CCN)NC(=O)[C@@H](CC(C)C)NC(=O)[C@H](C)N(C)C(=O)[C@H](CCCNC(=N)N)NC(=O)[C@H](Cc3ccc(-c4ccccc4)cc3)NC(=O)[C@H](Cc3ccc(O)cc3)NC2=O)c1 [Example 2642] ({CH2CO}-AY(Carboxymethyl)D[Phe(3-Me)]Y[Bip]R[NMeA][dL][Dab][Cha][Val(3-OH)]HC[Dab]-{NH(CH2)12COOH}; thioether N-14) |
